Laboratory results from patent publication US4740233A, “Substituted 1,2,4-triazolo[1,5-a]-pyrimidine-2-sulfonamides and compositions and methods of controlling undesired vegetation and suppressing the nitrification of ammonium nitrogen in soil” (The Dow Chemical Company, priority 1986, dated 1988).

What was measured:
jimsonweed = experiment: Postemergent control of plant species; type: in vivo, Datura stramonium; conditions: Datura stramonium, post-emergence, 336 h, read-out: percent postemergent control
Summary of the method: (§1)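 Each compound is dissolved in acetone, mixed with an equal volume of 0.1% surfactant water, and sprayed on plants grown to 2-4 leaves in nutrient soil. Treated and untreated beds sit under identical greenhouse temperature and light for roughly two weeks before growth reduction is rated.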

yellow foxtail = experiment: Postemergent control of plant species; type: in vivo, Setaria lutescens; conditions: Setaria, post-emergence, 336 h, read-out: percent postemergent control
Summary of the method: as §1

[1] = system: nitrification of ammonium nitrogen; experiment: Suppression of nitrification of ammonium nitrogen in soil; conditions: 27° C.
Summary of the method: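 Soil (20 g) moistened to its 1/3 bar tension value, mixed with test chemical and incubated sealed for two weeks at 27° C. Nitrate extracted with ammonium sulfate solution and measured by nitrate-specific ion electrode; value given as % NH4-N remaining.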

yellow nutsedge [2] = experiment: Postemergent control of plant species; type: in vivo, Cyperus esculentus; conditions: Cyperus, post-emergence, 336 h, read-out: percent postemergent control
Summary of the method: as §1

barnyardgrass [3] = experiment: Control of aquatic plant species (paddy water); type: in vivo, Echinochloa crusgalli; conditions: Echinochloa crus-galli, 216 h, nine days, read-out: Percent control; for pest or weed control at 1000 g/ha: 1.0 Kg/Ha
Description: (§2) In testing for such utility, the plant species to be tested were transplanted into 16 oz. containers into about 2 inches of soil when they were in the 1-2 inch stage and then flooded to a depth of about 1 inch. An acetone concentrate of the chemical to be tested was then injected into the paddy water, the volume injected being varied as desired to provide the desired concentration. Percent control was evaluated nine days after application.

sugar beet = experiment: Postemergent control of plant species; type: in vivo, Beta saccharifera; conditions: Beta vulgaris, post-emergence, 336 h, read-out: percent postemergent control
Summary of the method: as §1

pigweed = experiment: Postemergent control of plant species; type: in vivo, Amaranthus spp.; conditions: Amaranthus retroflexus, post-emergence, 336 h, read-out: percent postemergent control
Summary of the method: as §1

crabgrass = experiment: Postemergent control of plant species; type: in vivo, Digitaria spp.; conditions: Digitaria sanguinalis, post-emergence, 336 h, read-out: percent postemergent control
Summary of the method: as §1

cocklebur = experiment: Postemergent control of plant species; type: in vivo, Xanthium spp.; conditions: Xanthium strumarium, post-emergence, 336 h, read-out: percent postemergent control
Summary of the method: as §1

wheat = experiment: Postemergent control of plant species; type: in vivo, Triticum aestivum; conditions: Triticum aestivum, post-emergence, 336 h, read-out: percent postemergent control
Summary of the method: as §1

sorghum = experiment: Postemergent control of plant species; type: in vivo, Sorghum vulgare; conditions: Sorghum, post-emergence, 336 h, read-out: percent postemergent control
Summary of the method: as §1

yellow nutsedge [4] = experiment: Control of aquatic plant species (paddy water); type: in vivo, Cyperus esculentus; conditions: Cyperus, 216 h, nine days, read-out: Percent control; for pest or weed control at 1000 g/ha: 1.0 Kg/Ha
Description: as §2

corn = experiment: Postemergent control of plant species; type: in vivo, Zea mays; conditions: Zea mays, post-emergence, 336 h, read-out: percent postemergent control
Summary of the method: as §1

rape = experiment: Postemergent control of plant species; type: in vivo, Brassica napus; conditions: Brassica napus, post-emergence, 336 h, read-out: percent postemergent control
Summary of the method: as §1

barnyardgrass [5] = experiment: Postemergent control of plant species; type: in vivo, Echinochloa crusgalli; conditions: Echinochloa crus-galli, post-emergence, 336 h, read-out: percent postemergent control
Summary of the method: as §1

sprangletop = experiment: Control of aquatic plant species (paddy water); type: in vivo, Leptochloa filiformis; conditions: Leptochloa filiformis, 216 h, nine days, read-out: Percent control; for pest or weed control at 1000 g/ha: 1.0 Kg/Ha
Description: as §2

cotton = experiment: Postemergent control of plant species; type: in vivo, Gossypium spp.; conditions: Gossypium hirsutum, post-emergence, 336 h, read-out: percent postemergent control
Summary of the method: as §1

rice [6] = experiment: Control of aquatic plant species (paddy water); type: in vivo, Oryza sativa; conditions: Oryza sativa, 216 h, nine days, read-out: Percent control; for pest or weed control at 1000 g/ha: 1.0 Kg/Ha
Description: as §2

velvetleaf = experiment: Postemergent control of plant species; type: in vivo, Abutilon theophrasti; conditions: Abutilon theophrasti, post-emergence, 336 h, read-out: percent postemergent control
Summary of the method: as §1

annual morning glory = experiment: Postemergent control of plant species; type: in vivo, Ipomoea spp.; conditions: Ipomoea, post-emergence, 336 h, read-out: percent postemergent control
Summary of the method: as §1

johnson grass = experiment: Postemergent control of plant species; type: in vivo, Sorghum halepense; conditions: Sorghum halepense, post-emergence, 336 h, read-out: percent postemergent control
Summary of the method: as §1

rice [7] = experiment: Postemergent control of plant species; type: in vivo, Oryza sativa; conditions: Oryza sativa, post-emergence, 336 h, read-out: percent postemergent control
Summary of the method: as §1

wild oats = experiment: Postemergent control of plant species; type: in vivo, Avena fatua; conditions: Avena fatua, post-emergence, 336 h, read-out: percent postemergent control
Summary of the method: as §1

soybean = experiment: Postemergent control of plant species; type: in vivo, Glycine max.; conditions: Glycine max, post-emergence, 336 h, read-out: percent postemergent control
Summary of the method: as §1

Row | SMILES | pest or weed control at 500 ppm (jimsonweed) [%] | pest or weed control at 500 ppm (yellow foxtail) [%] | % NH4-N Remaining After 2 Weeks Incubation ([1]; 1 ppm) [%] | pest or weed control at 500 ppm (yellow nutsedge [2]) [%] | plant injury at 500 ppm (sugar beet) [%] | pest or weed control at 500 ppm (pigweed) [%] | pest or weed control at 500 ppm (crabgrass) [%] | pest or weed control at 500 ppm (cocklebur) [%] | plant injury at 500 ppm (wheat) [%] | plant injury at 500 ppm (sorghum) [%] | plant injury at 500 ppm (corn) [%] | plant injury at 500 ppm (rape) [%] | pest or weed control at 500 ppm (barnyardgrass [5]) [%] | plant injury at 500 ppm (cotton) [%] | pest or weed control at 500 ppm (velvetleaf) [%] | pest or weed control at 500 ppm (annual morning glory) [%] | pest or weed control at 500 ppm (johnson grass) [%] | plant injury at 500 ppm (rice [7]) [%] | pest or weed control at 500 ppm (wild oats) [%] | plant injury at 500 ppm (soybean) [%] | also measured
1 | COc1ccccc1NS(=O)(=O)c1nc2nc(C)cc(C)n2n1 [Compound 4] | 60 | 0 | 38 | 0 | 70 | 0 | 20 | 40 | 0 | 40 | 0 | 40 | 0 | 10 | 60 | 0 | 80 | 40 | 0 | 40 | % NH4-N Remaining After 2 Weeks Incubation ([1]; 0.01 ppm): 0%; % NH4-N Remaining After 2 Weeks Incubation ([1]; 0.1 ppm): 0%; % NH4-N Remaining After 2 Weeks Incubation ([1]; 10 ppm): 71%; pest or weed control at 2000 g/ha (barnyardgrass [3]; 2.0 Kg/Ha): 95%; pest or weed control at 2000 g/ha (yellow nutsedge [4]; 2.0 Kg/Ha): 80%; pest or weed control at 2000 g/ha (sprangletop; 2.0 Kg/Ha): 45%; pest or weed control at 2000 g/ha (rice [6]; 2.0 Kg/Ha): 90%
2 | Cc1ccnc2nc(S(=O)(=O)Nc3c(Cl)cccc3Cl)nn12 [Compound 180] | 100 | 75 |  | 90 | 100 |  | 90 | 100 | 0 | 50 | 0 | 100 | 10 | 100 | 100 | 90 | 20 | 10 | 0 | 100 | pest or weed control at 250 g/ha (barnyardgrass [3]; 0.25 Kg/Ha): 90%; pest or weed control at 1000 g/ha (barnyardgrass [3]): 97%; pest or weed control at 250 g/ha (yellow nutsedge [4]; 0.25 Kg/Ha): 90%; pest or weed control at 1000 g/ha (yellow nutsedge [4]): 97%; pest or weed control at 250 g/ha (sprangletop; 0.25 Kg/Ha): 0%; pest or weed control at 1000 g/ha (sprangletop): 97%; pest or weed control at 250 g/ha (rice [6]; 0.25 Kg/Ha): 0%; pest or weed control at 1000 g/ha (rice [6]): 80%
3 | COC(=O)c1ccccc1NS(=O)(=O)c1nc2nc(C)cc(C)n2n1 [Compound 10, methyl N-(5,7-dimethyl-1,2,4-triazolo[1,5-a]pyrimidine-2-sulfonyl)anthranilate] | 0 | 0 | 27 | 0 | 60 | 20 | 0 | 15 | 0 | 0 | 0 | 10 | 0 | 0 | 0 | 0 | 0 |  | 0 | 20 | % NH4-N Remaining After 2 Weeks Incubation ([1]; 0.01 ppm): 0%; % NH4-N Remaining After 2 Weeks Incubation ([1]; 0.1 ppm): 0%; % NH4-N Remaining After 2 Weeks Incubation ([1]; 10 ppm): 70%; pest or weed control at 1000 g/ha (barnyardgrass [3]): 90%; pest or weed control at 1000 g/ha (yellow nutsedge [4]): 90%; pest or weed control at 1000 g/ha (sprangletop): 50%; pest or weed control at 1000 g/ha (rice [6]): 93%
4 | Cc1cc(C)n2nc(S(=O)(=O)Nc3ccccc3Cl)nc2n1 [Compound 7, 5,7-dimethyl-N-(2-chlorophenyl)-1,2,4-triazolo[1,5-a]pyrimidine-2-sulfonamide] | 20 | 25 | 80 | 65 | 100 | 60 | 0 | 100 | 0 | 65 | 0 | 90 | 35 |  | 65 | 90 | 50 | 15 | 0 | 55 | % NH4-N Remaining After 2 Weeks Incubation ([1]; 0.06 ppm): 17%; % NH4-N Remaining After 2 Weeks Incubation ([1]; 0.125 ppm): 30%; % NH4-N Remaining After 2 Weeks Incubation ([1]; 0.25 ppm): 62%; % NH4-N Remaining After 2 Weeks Incubation ([1]; 0.5 ppm): 73%; pest or weed control at 1000 g/ha (barnyardgrass [3]): 99%; pest or weed control at 1000 g/ha (yellow nutsedge [4]): 90%; pest or weed control at 1000 g/ha (sprangletop): 93%; pest or weed control at 1000 g/ha (rice [6]): 97%
